Results: patent US10485814B2, “Nicotinamide riboside analogs and pharmaceutical compositions and uses thereof” (GlaxoSmithKline Intellectual Property (No. 2) Limited, priority 2014, dated 2019)

What was measured:
HaCaT cells = assay: H2O2-induced reactive oxygen species (ROS) in HaCaT cells (CellROX deep red); format: cell-based, human; details: 3 hr pre-incubation then 250 μM H2O2, Hydroxyterosol 0.005%, niacinamide 4.5 mM, NRH several concentrations
Protocol: HaCaT cells were grown as described in example 23 and were seeded in 96-well plates (Nunc™ black with optical bottom, Thermo Fisher Scientific, Inc., Waltham, Mass.) with a density at 2×10^4 cells per well and 100 μl medium in each well, and grown overnight before treatments. Stock solutions of NRH and other test compounds were prepared and diluted to 2× of final treatment concentrations in DMEM medium in 96-well storage plate as indicated in the FIG. 11. HaCaT Cells were treated in triplicates by adding 100 μl of diluted solutions of test compounds (2×) to each well containing 100 μl medium already. Cells were incubated in the presence of test compounds for 3 hrs. At the end of 3 hr incubation, cells were washed once with 200 μl DPBS with Ca^++ and Mg^++ (Life Technologies) and then fed with 100 μl DMEM medium each well containing H2O2 at 250 μM (as a ROS (reactive oxygen species) inducer, Sigma). After 30 min incubation, cells were washed once with 200 μl DPBS with Ca^++ and Mg^++ and CellROX deep red reagent (2.5 mM stock solution, Life Technologies) was added to the medium to a final concentration of 5 μM. After 1 hr incubation at 37° C., 5% CO2, Cells were washed for 3 times with DPBS, fluorescence signal was read at Ex. 640 nm and Em. 665 nm in Biotek Synergy H4 microplate reader (BioTek, Winooski, Vt.). Untreated cells were served as controls (normalized to 1). All the treated samples were normalized to the untreated control.

Human dermal fibroblasts = assay: TNFα-induced gene expression in dermal fibroblasts (QPCR); format: cell-based; details: 30 hr
Protocol: Human dermal fibroblasts were grown in regular culture media as described in example 23 above and seeded in 12-well plates at 2×10^5 cells per well for overnight. Cells were then replenished with fresh medium and treated with TNFα (10 ng/ml) with and without NRH (200 μM) for 30 hr. At the end of the incubation, cells were washed once with HBSS with Ca^2+ and Mg^2+ (Life Technologies), and subject to RNA isolation and QPCR analyses.

[1] = Gravimetric Vapor Sorption (GVS); format: physicochemical
In short: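 Samples dried under nitrogen 5 h at 25 °C, then sorption ramp from 5% to 95% or 90% RH and desorption back to 5% or 10% RH, all at 25 °C. Each RH step held 4 h; mass change by microbalance.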

## NC(=O)C1=CN([C@@H]2O[C@H](CO)[C@@H](O)[C@H]2O)C=CC1 [NRH, dihydronicotinamide riboside]
HaCaT cells
  H2O2-induced ROS: dose-dependent inhibitory activities
Human dermal fibroblasts; NRH 200 μM
  basal COX-2 gene expression: reduced
  expression level of NRF2: slightly increased
Human dermal fibroblasts; TNFα 10 ng/ml with NRH 200 μM
  TNF-α-induced COX-2 gene expression: reduced
[1]; 90% RH, 25° C., after drying
  GVS weight gain: greater than 60 % w/w
[1]; GVS isotherm 25° C.
  hygroscopicity by GVS: hygroscopic
